Experiments:
Format in all cases: in vivo, Nicotiana tabacum (Xanthi nc)
PR-1a protein [1] = assay: Induction and quantification of PR-1a protein after leaf infiltration of tobacco; conditions: for PR-1a induction, result in words: leaf infiltration; for PR-1a protein following treatment, 96 h / PR-1a protein following treatment, 192 h: compared to 1 mM SA at 96 h
Protocol: (§1) Tobacco (Nicotiana tabacum) plants (Xanthi nc) were grown in Promix PGX at 25 C and a 16/8 h photoperiod. Plants were fed a 1 g/L concentration of 20-20-20 (N-P-K fertilizer) twice a week. The Xanthi-nc variety carries the N-gene for resistance to TMV.
For evaluating pathogenesis-related protein induction, test compounds were dissolved in ethanol and dispersed in water (0.1% v/v ethanol). The most recently fully-expanded leaf on each plant was selected for infiltration. Infiltration was accomplished using a 5 mL disposable syringe (without needle). The solution was forced through the stomates of the abaxial surface of the leaf. Treatment solution was infiltrated into the leaf until the leaf was saturated.
All harvests were performed 96 hours after infiltration unless indicated. Briefly, treated leaves were de-veined, the remaining tissue was cut into 1 cm×1 cm pieces and vacuum-infiltrated with ice-cold extraction buffer. […] The extracellular fluid containing the acidic PR-1a protein was collected by centrifugation at 1000 g for 10 minutes at 4° C. After collection, samples were stored at −80° C. Protein concentrations of extracellular fluids were determined by Bradford dye reagent (BioRad, Richmond, Calif.) used BSA as a standard. Eight to ten μg of each protein sample were analyzed by electrophoresis on 14% Native Polyacrylamide gels (14% pre-cast Tris-Glycine gels; Invitrogen, Carlsbad, Calif.). Gels were stained with colloidal blue staining reagent (Invitrogen), and PR-1a protein was quantitated using a Model GS-710 densitometer (BioRad).

[2] = test system: tobacco mosaic virus (TMV); assay: Resistance measurement: TMV lesion diameter after spray application; conditions: for Percent decrease in TMV-lesion diameter: percent reduction in the diameter of TMV lesions
Protocol: as §1
(§2) Test compounds were dissolved in ETOH and dispersed in water (0.1% v/v ethanol). Spray solutions were amended with 0.25% crop oil concentrate (v/v). Plants were sprayed to drip, and moved to a glasshouse.
After spraying, one leaf per plant was inoculated with 1.0 ug TMV (U1; vulgare strain) at the times indicated. Six days post-inoculation, leaves were removed and the diameters of 20 necrotic lesions were measured per leaf. The mean lesion diameters from at least four plants per treatment were measured. Lesion diameter measures were subjected to two way analysis of variance (ANOVA) and Duncan's multiple range procedure at p=0.05.

PR-1a protein [3] = assay: Induction of PR-1a protein in Xanthi-nc tobacco after spray application; conditions: which equals 1
Protocol: as §1, with “TMV. Plants were treated with chemicals and/or virus at 5-6 weeks after sowing, when they had 5-7 fully-expanded leaves.” for “TMV.”
Proteins were harvested by the method of Yalpani et al. (1991; Plant Cell. 3:809-818). All harvests were performed 96 hours after infiltration unless indicated. Briefly, treated leaves were de-veined, the remaining tissue was cut into 1 cm×1 cm pieces and vacuum-infiltrated with ice-cold extraction buffer. Leaf tissue was blotted to remove excess buffer, and placed in a spin column assembly (Yalpani et al., 1991). The extracellular fluid containing the acidic PR-1a protein was collected by centrifugation at 1000 g for 10 minutes at 4° C. After collection, samples were stored at −80° C. Protein concentrations of extracellular fluids were determined by Bradford dye reagent (BioRad, Richmond, Calif.) used BSA as a standard. Eight to ten μg of each protein sample were analyzed by electrophoresis on 14% Native Polyacrylamide gels (14% pre-cast Tris-Glycine gels; Invitrogen, Carlsbad, Calif.). Gels were stained with colloidal blue staining reagent (Invitrogen), and PR-1a protein was quantitated using a Model GS-710 densitometer (BioRad).
as §2

[4] = 1 mM spray 48 h before TMV inoculation
[5] = 1 mM spray 96 h before TMV inoculation

Molecule	PR-1a induction, result in words (PR-1a protein [1])	Percent decrease in TMV-lesion diameter [2] [%]	further results
O=C(O)c1ccccc1F [2-Fluorobenzoic acid]	significantly reduced activity	–	–
O=C(O)c1c(O)c(Cl)cc(Cl)c1Cl [3,5,6-Trichlorosalicylic acid]	–	45.1	–
O=C(O)c1c(O)c(Cl)cc(Cl)c1O [3,5-Dichloro-6-hydroxysalicylic acid]	–	48.3	–
O=C(O)c1cc(Cl)cc(Cl)c1O [3,5-Dichlorosalicylic acid, reference compound]	showed the greatest induction of PR-1a	36.6	PR-1a protein following treatment, 96 h (PR-1a protein [1]; 1 mM, which equals 1): 1.83; PR-1a protein following treatment, 192 h (PR-1a protein [1]; 1 mM, which equals 1): 4.66
O=C(O)c1cc(F)cc(F)c1O [3,5-Difluorosalicylic acid]	more induction at 96 hours than the corresponding chlorinated salicylates	55.0	PR-1a protein following treatment, 96 h (PR-1a protein [1]; 1 mM, which equals 1): 3.64; PR-1a protein following treatment, 192 h (PR-1a protein [1]; 1 mM, which equals 1): 3.21; Lesion diameter [2, 4]: 2.04 AB mm; Lesion diameter [2, 5]: 1.85 A mm; Reduction of TMV-lesion size / resistance to TMV, result in words ([2]; spray application): statistically equal to that induced by 5 mM Salicylic acid
O=C(O)c1cc([N+](=O)[O-])cc([N+](=O)[O-])c1O [3,5-Dinitrosalicylic acid]	completely deactivated	–	Mean PR Induction (relative induction of PR-1a protein) (PR-1a protein [1]; 1 mM, 96 h post infiltration, compared to 1 mM SA, which equals 1): 0
O=C(O)c1cc(F)cc(Cl)c1O [3-Chloro-5-fluorosalicylic acid]	–	34	–
O=C(O)c1cccc(Cl)c1O [3-Chlorosalicylic acid]	–	55.1	–
O=C(O)c1cc(Cl)cc(F)c1O [3-Fluoro-5-chlorosalicylic acid]	–	47.4	–
O=C(O)c1cccc(F)c1O [3-Fluorosalicylic acid]	–	34.4	–
O=C(O)c1ncccc1O [3-Hydroxypicolinic acid]	induced PR-1a accumulation more than equimolar SA	–	–
COc1cccc(C(=O)O)c1O [3-Methoxysalicylic acid]	–	8.9	–
O=C(O)c1cccc([N+](=O)[O-])c1O [3-Nitrosalicylic acid]	decreased activity	–	–
Nc1ccc(C(=O)O)c(O)c1 [4-Aminosalicylic acid]	–	22.9	–
O=C(O)c1ccc(Cl)cc1O [4-Chlorosalicylic acid, reference compound]	–	30.2	–
O=C(O)c1ccc(F)cc1O [4-Fluorosalicylic acid]	–	36.2	–
COc1ccc(C(=O)O)c(O)c1 [4-Methoxysalicylic acid]	–	17.6	–
O=C(O)c1cc(Cl)ccc1O [5-Chlorosalicylic acid, reference compound]	–	38.7	PR-1a protein following treatment, 96 h (PR-1a protein [1]; 1 mM, which equals 1): 1.02; PR-1a protein following treatment, 192 h (PR-1a protein [1]; 1 mM, which equals 1): 1.75
O=C(O)c1cc(F)ccc1O [5-Fluorosalicylic acid]	more induction at 96 hours than the corresponding chlorinated salicylates	38.0	PR-1a protein following treatment, 96 h (PR-1a protein [1]; 1 mM, which equals 1): 1.30; PR-1a protein following treatment, 192 h (PR-1a protein [1]; 1 mM, which equals 1): 1.74
COc1ccc(O)c(C(=O)O)c1 [5-Methoxysalicylic acid]	–	9.7	–
O=C(O)c1cc([N+](=O)[O-])ccc1O [5-Nitrosalicylic acid]	decreased activity	–	–
O=C(O)c1c(O)cccc1F [6-Fluorosalicylic acid]	–	24.3	–
COc1cccc(O)c1C(=O)O [6-Methoxysalicylic acid]	–	13.3	–
O=C(O)c1ccccc1 [Benzoic acid]	unable to induce PR-1a accumulation	–	–
CCOC(=O)C(C)OC(=O)c1cc(Oc2ccc(C(F)(F)F)cc2Cl)ccc1[N+](=O)[O-] (centres unmarked) [Lactofen, 1-(carboxyethoxy) ethyl 5-[2-chloro-4-(tri-fluoromethyl)phenoxy]-2-nitrobenzoate]	–	–	PR-1a (relative induction) (PR-1a protein [3]; 290 ppm Lactofen, harvested 96 hours after spray application, compared to 1 mM SA): 0.44; PR-1a (relative induction) (PR-1a protein [3]; 1450 ppm Lactofen, harvested 96 hours after spray application, compared to 1 mM SA): 2.00
O=C([O-])c1ccccc1O.[Na+] [NaSA, sodium salicylate]	–	–	PR-1a (relative induction) (PR-1a protein [3]; 1600 ppm NaSA, harvested 96 hours after spray application, compared to 1 mM SA): 1.00; PR-1a (relative induction) (PR-1a protein [3]; 8000 ppm NaSA, harvested 96 hours after spray application, compared to 1 mM SA): 4.56; PR-1a (relative induction) (PR-1a protein [3]; NaSA 1600 mg/l, 48 hours after application, compared to infiltration with 1 mM SA at 96 h): 0.34; PR-1a (relative induction) (PR-1a protein [3]; NaSA 1600 mg/l, 96 hours after application, compared to infiltration with 1 mM SA at 96 h): 1.02; Lesion diameter ([2]; NaSA 1600 mg/l, 48 hours after application): 1.17 B mm; Lesion diameter ([2]; NaSA 1600 mg/l, 96 hours after application): 1.75 AB mm
O=C(O)c1ccccc1O [Salicylic acid, reference compound]	–	–	PR-1a protein following treatment, 96 h (PR-1a protein [1]; 1 mM, which equals 1): 1.00; PR-1a protein following treatment, 192 h (PR-1a protein [1]; 1 mM, which equals 1): 1.46; Lesion diameter [2, 4]: 2.20 BC mm; Lesion diameter [2, 5]: 2.52 B mm; Lesion diameter ([2]; 5 mM spray 48 h before TMV inoculation): 1.88 A mm; Lesion diameter ([2]; 5 mM spray 96 h before TMV inoculation): 1.68 A mm
O=C(O)c1ccccc1S [Thiosalicylic acid]	significantly reduced activity	–	–
Salicylic acid/Sodiumsalicylate [reference compound]	–	30.1	Mean PR Protein Induction (PR-1a protein [1]; 1 mM, 96 h post infiltration, compared to 1 mM SA, which equals 1 (Table 5)): 1.0

— US20050050587A1, “Inducers of plant disease resistance” (priority 2003, published 2005)
